Laboratory results reported in PubChem BioAssay (NCI).
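At the GI50, growth is halved. TGI: total growth inhibition.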

Experiments:
Assay in all cases: NCI tumour cell line growth inhibition, 384-well format
CCRF-CEM leukemia = test system: CCRF-CEM leukemia
SNB-75 CNS = test system: SNB-75 CNS
HL-60(TB) leukemia = test system: HL-60(TB) leukemia
SK-OV-3 ovarian = test system: SK-OV-3 ovarian
EKVX NSCLC = test system: EKVX NSCLC
MDA-MB-468 breast = test system: MDA-MB-468 breast
NCI/ADR-RES ovarian = test system: NCI/ADR-RES ovarian
U251 glioblastoma = test system: U251 glioblastoma
HCC-2998 colon = test system: HCC-2998 colon
TK-10 renal = test system: TK-10 renal
786-0 renal = test system: 786-0 renal
ACHN renal = test system: ACHN renal
HS 578T breast = test system: HS 578T breast
OVCAR-4 ovarian = test system: OVCAR-4 ovarian
PC-3 prostate = test system: PC-3 prostate
OVCAR-3 ovarian = test system: OVCAR-3 ovarian
SNB-19 CNS = test system: SNB-19 CNS
COLO 205 colon = test system: COLO 205 colon
SK-MEL-5 melanoma = test system: SK-MEL-5 melanoma
A498 renal = test system: A498 renal
SN12C renal = test system: SN12C renal
NCI-H460 NSCLC = test system: NCI-H460 NSCLC
KM12 colon = test system: KM12 colon
HOP-92 NSCLC = test system: HOP-92 NSCLC
MCF7 breast = test system: MCF7 breast
OVCAR-5 ovarian = test system: OVCAR-5 ovarian
HOP-62 NSCLC = test system: HOP-62 NSCLC
SK-MEL-28 melanoma = test system: SK-MEL-28 melanoma
MDA-MB-435 melanoma = test system: MDA-MB-435 melanoma
IGROV1 ovarian = test system: IGROV1 ovarian
MOLT-4 leukemia = test system: MOLT-4 leukemia
NCI-H322M lung = test system: NCI-H322M lung
CAKI-1 renal = test system: CAKI-1 renal
BT-549 breast = test system: BT-549 breast
SW-620 colon = test system: SW-620 colon
RPMI-8226 leukemia = test system: RPMI-8226 leukemia
UACC-257 melanoma = test system: UACC-257 melanoma
M14 melanoma = test system: M14 melanoma
UACC-62 melanoma = test system: UACC-62 melanoma
SF-268 CNS = test system: SF-268 CNS
SF-539 CNS = test system: SF-539 CNS
NCI-H226 lung = test system: NCI-H226 lung
LOX IMVI melanoma = test system: LOX IMVI melanoma
NCI-H522 lung = test system: NCI-H522 lung
A549 NSCLC = test system: A549 NSCLC
DU-145 prostate = test system: DU-145 prostate
RXF 393 renal = test system: RXF 393 renal
HT29 colon = test system: HT29 colon
MDA-MB-231 breast = test system: MDA-MB-231 breast
MALME-3M melanoma = test system: MALME-3M melanoma
HCT-116 colon = test system: HCT-116 colon
SF-295 CNS = test system: SF-295 CNS
NCI-H23 lung = test system: NCI-H23 lung
K-562 leukemia = test system: K-562 leukemia
HCT-15 colon = test system: HCT-15 colon
OVCAR-8 ovarian = test system: OVCAR-8 ovarian
T-47D breast = test system: T-47D breast

CNC(=O)c1cc(Oc2ccc(NC(=O)Nc3cc(C(C)(C)C)nn3-c3ccc4ncccc4c3)c(F)c2)ccn1
GI50 (CCRF-CEM leukemia): 1.37 µM
TGI (CCRF-CEM leukemia): 2.76 µM
GI50 (SNB-75 CNS): 1.07 µM
TGI (SNB-75 CNS): 2.28 µM
GI50 (HL-60(TB) leukemia): 0.724 µM
TGI (HL-60(TB) leukemia): 1.53 µM
GI50 (SK-OV-3 ovarian): 1.05 µM
TGI (SK-OV-3 ovarian): > 100 µM
GI50 (EKVX NSCLC): 1.49 µM
TGI (EKVX NSCLC): 4.28 µM
GI50 (MDA-MB-468 breast): 2.82 µM
TGI (MDA-MB-468 breast): 4.37 µM
GI50 (NCI/ADR-RES ovarian): 2.53 µM
TGI (NCI/ADR-RES ovarian): 6.34 µM
GI50 (U251 glioblastoma): 1.93 µM
TGI (U251 glioblastoma): 4.95 µM
GI50 (HCC-2998 colon): 2.14 µM
TGI (HCC-2998 colon): 4.73 µM
GI50 (TK-10 renal): 1.21 µM
TGI (TK-10 renal): 4.4 µM
GI50 ([…]-0 renal): 1.47 µM
TGI (786-0 renal): 5.19 µM
GI50 (ACHN renal): 0.446 µM
TGI (ACHN renal): 4.26 µM
GI50 (HS 578T breast): 0.547 µM
TGI (HS 578T breast): 1.64 µM
GI50 (OVCAR-4 ovarian): 2.18 µM
TGI (OVCAR-4 ovarian): 4.99 µM
GI50 (PC-3 prostate): 3.16 µM
TGI (PC-3 prostate): 9.47 µM
GI50 (OVCAR-3 ovarian): 2.39 µM
TGI (OVCAR-3 ovarian): 5.22 µM
GI50 (SNB-19 CNS): 3.69 µM
TGI (SNB-19 CNS): > 100 µM
GI50 (COLO 205 colon): 0.391 µM
TGI (COLO 205 colon): 2.81 µM
GI50 (SK-MEL-5 melanoma): 0.552 µM
TGI (SK-MEL-5 melanoma): 1.83 µM
GI50 (A498 renal): 2.41 µM
TGI (A498 renal): 9.32 µM
GI50 (SN12C renal): 0.679 µM
TGI (SN12C renal): 4.18 µM
GI50 (NCI-H460 NSCLC): 1.16 µM
TGI (NCI-H460 NSCLC): 4.38 µM
TGI (KM12 colon): 6.36 µM
GI50 (HOP-92 NSCLC): 0.605 µM
TGI (HOP-92 NSCLC): > 100 µM
GI50 (MCF7 breast): 1.59 µM
TGI (MCF7 breast): > 100 µM
GI50 (OVCAR-5 ovarian): 0.884 µM
TGI (OVCAR-5 ovarian): 58 µM
GI50 (HOP-62 NSCLC): 1.74 µM
TGI (HOP-62 NSCLC): 3.97 µM
GI50 (SK-MEL-28 melanoma): 0.31 µM
TGI (SK-MEL-28 melanoma): 1.2 µM
GI50 (MDA-MB-435 melanoma): 0.477 µM
TGI (MDA-MB-435 melanoma): 1.7 µM
GI50 (IGROV1 ovarian): 0.442 µM
TGI (IGROV1 ovarian): 7.53 µM
GI50 (MOLT-4 leukemia): 1.54 µM
TGI (MOLT-4 leukemia): 2.94 µM
GI50 (NCI-H322M lung): 2.58 µM
TGI (NCI-H322M lung): 9.5 µM
GI50 (CAKI-1 renal): 0.359 µM
TGI (CAKI-1 renal): > 100 µM
GI50 (BT-549 breast): 0.632 µM
TGI (BT-549 breast): 1.88 µM
GI50 (SW-620 colon): 2.74 µM
TGI (SW-620 colon): 5.71 µM
GI50 (RPMI-8226 leukemia): 1.91 µM
TGI (RPMI-8226 leukemia): 3.44 µM
GI50 (UACC-257 melanoma): 0.358 µM
TGI (UACC-257 melanoma): 1.71 µM
GI50 (M14 melanoma): 0.0977 µM
TGI (M14 melanoma): 1.02 µM
GI50 (UACC-62 melanoma): 0.0328 µM
TGI (UACC-62 melanoma): 0.612 µM
GI50 (SF-268 CNS): 0.192 µM
TGI (SF-268 CNS): 0.752 µM
GI50 (SF-539 CNS): 1.4 µM
TGI (SF-539 CNS): 2.73 µM
GI50 (NCI-H226 lung): 0.109 µM
TGI (NCI-H226 lung): > 100 µM
GI50 (LOX IMVI melanoma): 0.281 µM
TGI (LOX IMVI melanoma): 0.961 µM
GI50 (NCI-H522 lung): 1.45 µM
TGI (NCI-H522 lung): 3.01 µM
GI50 (A549 NSCLC): 1.18 µM
TGI (A549 NSCLC): 23.2 µM
GI50 (DU-145 prostate): 2.22 µM
TGI (DU-145 prostate): 8.64 µM
GI50 (RXF 393 renal): 0.499 µM
TGI (RXF 393 renal): 1.57 µM
GI50 (HT29 colon): 0.52 µM
TGI (HT29 colon): > 100 µM
GI50 (MDA-MB-231 breast): 0.558 µM
TGI (MDA-MB-231 breast): > 100 µM
GI50 (MALME-3M melanoma): 0.0343 µM
TGI (MALME-3M melanoma): 0.308 µM
GI50 (HCT-116 colon): 0.937 µM
TGI (HCT-116 colon): > 100 µM
GI50 (SF-295 CNS): 2.21 µM
TGI (SF-295 CNS): > 100 µM
GI50 (NCI-H23 lung): 0.49 µM
TGI (NCI-H23 lung): 1.58 µM
TGI (K-562 leukemia): > 100 µM
GI50 (HCT-15 colon): 2.34 µM
TGI (HCT-15 colon): 6.88 µM
GI50 (OVCAR-8 ovarian): 1.74 µM
TGI (OVCAR-8 ovarian): 4.3 µM
GI50 (T-47D breast): 0.853 µM
TGI (T-47D breast): 4.82 µM
